How the values were obtained:
[1] = system: D6D Promoter (human delta-6-desaturase control region, pRh4002.1); test: CAT reporter assay, basal activity of D6D promoter in ZR-75-1 cell line; type: cell-based; details: ZR-75-1 cells transfected with pRh4002.1 (D6D) plus agent; CAT activity normalized to pCat3-Control = 100; pRh4002.1 alone 75.91
[2] = target: T1, rat delta-5-desaturase (Rattus norvegicus, UniProt Q920R3, Q29H/R30G); test: Inhibition of rat delta-5-desaturase in whole cells of Saccharomyces cerevisiae transformed with pYr5014.1; type: cell-based
T1 construct: A rD5D cDNA fragment spanning nucleotides +1 to +1344 was cloned by RT-PCR using total RNA extracted from rat liver tissue; expressed in transfected cells; host or cells: Saccharomyces cerevisiae INVSc1 transformed with pYr5014.1 (pYES2 backbone), galactose-induced; whole cells or spheroplasts
T1 sequence (Q920R3 1-447 Q29H/R30G): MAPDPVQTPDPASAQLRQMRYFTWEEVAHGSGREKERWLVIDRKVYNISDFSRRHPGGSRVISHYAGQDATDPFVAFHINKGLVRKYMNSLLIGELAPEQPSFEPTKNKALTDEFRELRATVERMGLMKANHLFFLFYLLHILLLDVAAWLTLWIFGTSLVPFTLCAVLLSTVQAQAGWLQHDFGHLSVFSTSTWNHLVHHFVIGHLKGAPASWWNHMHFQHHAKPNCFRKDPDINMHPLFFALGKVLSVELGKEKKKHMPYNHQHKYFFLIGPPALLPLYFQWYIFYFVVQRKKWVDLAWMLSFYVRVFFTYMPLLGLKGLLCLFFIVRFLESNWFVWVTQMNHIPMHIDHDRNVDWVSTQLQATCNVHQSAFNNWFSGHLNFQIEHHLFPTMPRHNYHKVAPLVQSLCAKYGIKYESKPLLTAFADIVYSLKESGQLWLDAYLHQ
Method: (§2) Incubation of Whole Yeast: Saccharomyces cerevisiae transformed with either pYr5014.1 or pTh5009.1 were incubated in a 125 ml Erlenmeyer flask containing 9 ml of SC-U medium with 1% tergitol (O.D.600 0.4, approximately 3.2×10^6 cells/ml) and 200 μl of n-propyl gallate in ethanol (final concentration in the culture ranged between 1.7-14.0 mM). After I h incubation in an orbital incubator at 270 rpm and 30° C., 1 μCi of potassium salt of [1-^14C]-dihomogammalinolenic acid (dissolved in SC-U medium and 1% tergitol) was added to the cell suspension to a final concentration of 2 μM. After 5 h incubation with the inhibitor, cells reached the log phase and the transgene expression was induced with the addition of 1 ml of galactose to a final concentration of 2%. Yeast were further incubated for 19 h (O.D.600 range: 5-10) until they were harvested by centrifugation at 5000×g for 10 minutes at 4° C.
(§3) Calculations: The delta-5-desaturase activity was determined by measuring the conversion of radiolabelled dihomogammalinolenic acid to arachidonic acid (20:3n-6 to 20:4n-6). The percent inhibition was calculated as described elsewhere (Kawashima et al., 1996, Biosci. Biotech. Biochem., 60:1672-1676): % Inhibition=100(activity without the inhibitor−activity with the inhibitor)/activity without the inhibitor

[3] = system: fatty acid desaturases; details: Kawashima et al., 1996; cited from earlier work
[4] = target: T2, human delta-5-desaturase (Homo sapiens, UniProt O60427); test: Inhibition of human delta-5-desaturase in whole cells of Saccharomyces cerevisiae transformed with pTh5009.1; type: cell-based
T2 construct: expressed in transfected cells; host or cells: Saccharomyces cerevisiae INVSc1 transformed with pTh5009.1 (pYES2/CT backbone), galactose-induced; whole cells or spheroplasts
T2 sequence (O60427 with tags, fused parts or gaps): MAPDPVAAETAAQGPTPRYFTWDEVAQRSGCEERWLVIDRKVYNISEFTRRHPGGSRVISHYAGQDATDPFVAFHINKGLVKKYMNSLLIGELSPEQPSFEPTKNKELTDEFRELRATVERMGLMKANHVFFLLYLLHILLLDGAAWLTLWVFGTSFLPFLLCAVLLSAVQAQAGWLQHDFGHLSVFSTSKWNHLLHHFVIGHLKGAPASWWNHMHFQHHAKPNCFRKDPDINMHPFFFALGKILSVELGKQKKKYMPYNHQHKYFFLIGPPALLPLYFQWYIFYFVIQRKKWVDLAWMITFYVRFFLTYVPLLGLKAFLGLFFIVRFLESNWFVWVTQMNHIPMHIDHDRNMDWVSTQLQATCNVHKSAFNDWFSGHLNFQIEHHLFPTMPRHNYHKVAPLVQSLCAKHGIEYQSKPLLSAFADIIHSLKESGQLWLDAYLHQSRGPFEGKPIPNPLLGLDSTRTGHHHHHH
Method: as §2, §3

[5] = target: T3, delta-5-desaturase (Rattus norvegicus, UniProt Q920R3); test: Inhibition of delta-5-desaturase activity in rat liver microsomes; type: biochemical
T3 construct: from tissue; host or cells: liver microsomes of Wistar rats
T3 sequence (Q920R3 whole entry): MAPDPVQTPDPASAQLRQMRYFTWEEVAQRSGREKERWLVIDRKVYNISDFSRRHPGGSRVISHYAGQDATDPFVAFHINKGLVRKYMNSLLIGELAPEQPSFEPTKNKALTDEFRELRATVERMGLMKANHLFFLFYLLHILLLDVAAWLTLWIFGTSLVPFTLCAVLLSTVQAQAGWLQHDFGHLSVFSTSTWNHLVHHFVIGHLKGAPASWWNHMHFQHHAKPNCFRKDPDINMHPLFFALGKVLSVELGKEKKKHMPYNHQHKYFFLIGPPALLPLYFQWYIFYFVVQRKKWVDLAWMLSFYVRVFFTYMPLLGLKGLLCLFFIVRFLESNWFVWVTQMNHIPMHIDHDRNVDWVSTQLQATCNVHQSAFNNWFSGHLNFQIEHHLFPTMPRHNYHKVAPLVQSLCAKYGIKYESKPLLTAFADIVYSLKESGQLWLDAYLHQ
Method: Preparation rat liver microsomes: Wistar rats under light halothane (15% in mineral oil) anesthesia were sacrificed by exsanguination during periods of high enzyme activity. Livers are immediately rinsed with cold 0.9% NaCl solution, weighed and minced with scissors. All procedures are performed at 4° C. unless specified otherwise. Livers are homogenized in a solution (1:3 w/v) containing 0.25 M sucrose, 62 mM. potassium phosphate buffer (pH 7.0), 0.15 M KCl, 1.5 mM N-acetylcysteine, 5 mM MgCl2, and 0.1 mM EDTA using 4 strokes of a Potter-Elvehjem tissue homogenizer. The homogenate is centrifuged at 10,400×g for 20 min to eliminate mitochondria and cellular debris. The supernatant is filtered through a 3-layer cheesecloth and centrifuged at 105,000×g for 60 min. The microsomal pellet is gently resuspended in the same homogenization solution with a small glass/teflon homogenizer and stored at −70° C. The absence of mitochondrial contamination is enzymatically assessed. The protein concentration is measured using bovine serum albumin as the standard.
Incubation of rat liver microsomes with delta-5-desaturase modulators: Reactions are started by adding 2 mg of microsomal protein to pre-incubated tubes containing 0.20 μCi of the substrate fatty acid (DLL) at a final concentration of 33.3 μM in 1.5 ml of homogenization solution, containing NaF (42 mM), niacinamide (0.33 mM), ATP (1.57 mM), NADH (1.0 mM), coenzyme A (0.09 mM) and a range of concentrations of the enzyme modulators. N-propyl gallate was added to the incubation medium to a final concentration of 0.02-0.32 mM. The tubes are vortexed vigorously and after 15 min incubation in a shaking water bath (37° C.), the reactions are stopped and fatty acids are analyzed as described in Example 6. Alternatively, fatty acid methyl esters are analyzed by capillary column gas chromatography (GC).

[6] = target: T2, human delta-5-desaturase; test: Inhibition of human delta-5-desaturase in spheroplasts of Saccharomyces cerevisiae transformed with pTh5009.1; type: cell-based
Method: (§1) After 16 h incubation, spheroplasts were prepared as previously described in Example 8.

[7] = target: T1, rat delta-5-desaturase; test: Inhibition of rat delta-5-desaturase in spheroplasts of Saccharomyces cerevisiae transformed with pYr5014.1; type: cell-based
Method: as §1

[8] = system: spheroplasts of Saccharomyces cerevisiae; test: Cell density (O.D.600) and substrate radioactivity recovered in spheroplasts incubated with inhibitor
Description: Total lipids were extracted and analyzed as described in Example 6.

[9] = system: whole cells of Saccharomyces cerevisiae; test: Cell density (O.D.600) and substrate radioactivity recovered in whole yeast incubated with inhibitor; type: cell-based
Method: as §2

[10] = n-propyl gallate 0.25 mM, 20:3n-6 to 20:4n-6

CC/C=C\C/C=C\C/C=C\C/C=C\C/C=C\C/C=C\CCC(=O)O [DHA, docosahexaenoic acid]
Percent Activity Compared to Controls [1]: 19.82 ± 1.41%

CCCOC(=O)c1cc(O)c(O)c(O)c1 [n-propyl gallate, 3,4,5-Trihydoxybenzoic acid propyl ester]
% inhibition ([2]; n-propyl gallate 7.0 mM, gene induced after addition of inhibitor): 38.9% | % inhibition ([2]; n-propyl gallate 14.0 mM): 68.5% | type of inhibition of fatty acid desaturases [3]: noncompetitive inhibitor | % inhibition ([4]; n-propyl gallate 1.7 mM, gene induced after addition of inhibitor): 25.0% | % inhibition ([4]; n-propyl gallate 3.5 mM): 63.3% | % inhibition ([4]; n-propyl gallate 7.0 mM): 100.0% | concentration of the inhibitor at which a plateau of inhibition was reached [5]: 0.08 to 0.32 mM | % of inhibition ([5]; n-propyl gallate 0.02 mM, activity without inhibitor 394 pmol/mg microsomal protein/min): 62.9% | % of inhibition ([5]; n-propyl gallate 0.04 mM): 74.9% | % of inhibition ([5]; n-propyl gallate 0.08 mM): 86.4% | % of inhibition ([5]; n-propyl gallate 0.16 mM): 88.7% | % of inhibition ([5]; n-propyl gallate 0.32 mM): 100.0% | % inhibition [6, 10]: 14.6% | % inhibition ([6]; n-propyl gallate 0.50 mM): 17.6% | % inhibition ([6]; n-propyl gallate 1.00 mM): 24.0% | % inhibition ([6]; n-propyl gallate 2.00 mM): 41.0% | % inhibition ([6]; n-propyl gallate 4.00 mM): 100.0% | % inhibition ([6]; n-propyl gallate 8.00 mM): 100.0% | % inhibition [7, 10]: 4.3% | % inhibition ([7]; n-propyl gallate 1.00 mM): 7.0% | % inhibition ([7]; n-propyl gallate 2.00 mM): 20.5% | % inhibition ([7]; n-propyl gallate 4.00 mM): 50.4% | % inhibition ([7]; n-propyl gallate 8.00 mM): 81.9% | O.D.600 ([8]; n-propyl gallate 0.25 mM, pTh5009.1, without inhibitor 2.6): 2.4 | O.D.600 ([8]; n-propyl gallate 0.25 mM, pYr5014.1, without inhibitor 3.2): 2.8 | O.D.600 ([8]; n-propyl gallate 0.50 mM, pTh5009.1): 2.5 | O.D.600 ([8]; n-propyl gallate 1.00 mM, pTh5009.1): 2.5 | O.D.600 ([8]; n-propyl gallate 1.00 mM, pYr5014.1): 2.9 | O.D.600 ([8]; n-propyl gallate 2.00 mM, pTh5009.1): 2.2 | O.D.600 ([8]; n-propyl gallate 2.00 mM, pYr5014.1): 2.7 | O.D.600 ([8]; n-propyl gallate 4.00 mM, pTh5009.1): 2.4 | O.D.600 ([8]; n-propyl gallate 4.00 mM, pYr5014.1): 2.9 | O.D.600 ([8]; n-propyl gallate 8.00 mM, pTh5009.1): 1.2 | O.D.600 ([8]; n-propyl gallate 8.00 mM, pYr5014.1): 2.8 | cytotoxicity (consistent O.D.600 readings) ([8]; n-propyl gallate between 0.7-4.0 mM): not cytotoxic | O.D.600 ([9]; n-propyl gallate 1.7 mM, pTh5009.1, without inhibitor 10.9): 9.0 | O.D.600 ([9]; n-propyl gallate 3.5 mM, pTh5009.1): 9.9 | O.D.600 ([9]; n-propyl gallate 7.0 mM, pTh5009.1): 10.5 | O.D.600 ([9]; n-propyl gallate 7.0 mM, pYr5014.1, without inhibitor 6.7): 6.5 | O.D.600 ([9]; n-propyl gallate 14.0 mM, pYr5014.1): 5.4
